# Laboratory results from patent US7563805B2, “Tri-, tetra-substituted-3-aminopyrrolidine derivative” (Daiichi Pharmaceutical Co., Ltd., priority 2005, dated 2009).
# Like-named read-outs stand apart in the source and are kept apart here.
# Assays:
# in vivo [1] = details: male, Crj:CD IGS, rat, po, 5 mg/kg
# Method: (§1) The Comparative compound was also evaluated by the same procedure.
# (§2) The test substance was orally administered to fasted rats (7 week old male Crj:CD IGS rats purchased from Charles River Laboratories Japan, Inc.) at a dose of 5 mg/kg.
# (§3) Animals of absorption test group (3 animals per group) were sacrificed by bleeding under etherization at 0.25, 0.5, 1, 2, 4, and 8 hours after the drug administration, and blood, lever, kidney, and lung were collected. The blood was centrifuged (3000 rpm×15 minutes, 4° C.) after coagulation to collect serum. Tissue was homogenized after adding 3 to 5 mL of 0.1 mol/l phosphate buffer (pH 7.0), and the supernatant was collected from the homogenate (3000 rpm×15 minutes, 4° C.).
# (§4) Animals of excretion test group (3 animals per group) were placed in a metabolic cage, and the urine of 0 to 4 hours and 4 to 24 hours after the administration was collected in a water-cooled container. Simultaneously with the collection of the urine, the cage was also washed with about 15 mL of 0.1 mol/l phosphate buffer (pH 7.0) to collect the urine attached to the cage. For evaluation of conjugates such as glucuronide, the collected sample was also aliquoted and hydrolyzed with an equal amount of 1 mol/l aqueous solution of sodium hydroxide, and the hydrolysate was neutralized with 0.5 mol/l hydrochloric acid and measured for its concentration. The concentration was measured by LC-MS/MS method.
# (§5) Pharmacokinetic parameters of the each drug in rat were calculated by from the time course of the average concentration by using pharmacokinetic analysis software PSAG-CP (AS Medica Inc.) in a manner not dependent on the model animal.
# [2] = test system: Mycobacterium tuberculosis (quinolone sensitive); assay: anti-Mycobacterium tuberculosis (quinolone sensitive) activity, MIC; assay type: cell-based
# hERG K+ channel [3] = target: T1, hERG K+ channel (Homo sapiens, UniProt Q12809); assay: hERG-K^+ channel blocking effect
# T1 sequence (Q12809 whole entry): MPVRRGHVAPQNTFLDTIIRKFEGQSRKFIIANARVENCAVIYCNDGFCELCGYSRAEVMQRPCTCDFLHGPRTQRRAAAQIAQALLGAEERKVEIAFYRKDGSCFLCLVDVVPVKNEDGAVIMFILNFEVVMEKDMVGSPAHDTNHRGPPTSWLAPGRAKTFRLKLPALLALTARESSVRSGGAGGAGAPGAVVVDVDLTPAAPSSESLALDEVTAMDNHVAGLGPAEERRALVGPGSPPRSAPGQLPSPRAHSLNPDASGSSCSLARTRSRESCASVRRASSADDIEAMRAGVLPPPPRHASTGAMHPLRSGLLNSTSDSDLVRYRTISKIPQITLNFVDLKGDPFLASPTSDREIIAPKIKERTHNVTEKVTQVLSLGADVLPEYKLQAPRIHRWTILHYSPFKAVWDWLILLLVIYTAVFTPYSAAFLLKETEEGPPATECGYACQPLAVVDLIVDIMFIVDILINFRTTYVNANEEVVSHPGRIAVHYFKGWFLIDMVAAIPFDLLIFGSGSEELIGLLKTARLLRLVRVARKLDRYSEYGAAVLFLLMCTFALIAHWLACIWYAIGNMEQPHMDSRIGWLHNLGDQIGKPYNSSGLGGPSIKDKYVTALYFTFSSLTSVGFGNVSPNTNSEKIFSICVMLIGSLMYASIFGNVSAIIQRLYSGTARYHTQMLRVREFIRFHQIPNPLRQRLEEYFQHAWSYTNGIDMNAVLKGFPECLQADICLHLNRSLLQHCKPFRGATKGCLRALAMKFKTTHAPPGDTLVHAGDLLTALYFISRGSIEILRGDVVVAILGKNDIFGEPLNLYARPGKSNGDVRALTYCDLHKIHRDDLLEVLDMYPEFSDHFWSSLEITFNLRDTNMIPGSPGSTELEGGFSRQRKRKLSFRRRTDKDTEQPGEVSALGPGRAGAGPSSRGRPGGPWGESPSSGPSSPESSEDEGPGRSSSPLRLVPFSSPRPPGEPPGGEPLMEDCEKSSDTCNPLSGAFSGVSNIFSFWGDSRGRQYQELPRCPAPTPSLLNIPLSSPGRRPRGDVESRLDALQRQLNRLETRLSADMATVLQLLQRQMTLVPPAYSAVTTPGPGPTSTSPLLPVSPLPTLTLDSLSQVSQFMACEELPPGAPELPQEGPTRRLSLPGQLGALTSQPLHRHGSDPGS
# [4] = female, cynomolgus monkey, in vivo, 5 mg/kg
# P. vulgaris, 08601 = assay: antibacterial activity (MIC), standard method of Japanese Society of Chemotherapy
# [5] = design: species or system guinea pigs (Slc:Hertley); details: guinea pig, in vivo; for Average score in GPMT: male, Slc:Hertley
# Method: Guinea pig maximization test (GPMT) which is a widely accepted model for delayed antigenicity was conducted according to the method of Mugnusson et al. (J. invest. Dermatol., 52, 1969) by using a cutaneous sensitization concentration of 1% and a patch sensitization and induction concentration of 10%. At day 1, the animal was sensitized by cutaneously administering the test substance (the quinolone compounds and the control: vehicle, vaseline) (1% solution in physiological saline+FCA emulsion) at the back of the head of the shaved guinea pigs (7 week old male Slc:Hertley). At day 7, lauryl sodium sulfate (SLC) was applied for stimulus (adjuvant treatment), and on the next day, the test substance coated on a wax paper was patched onto the shaved skin to for sealed sensitization, and after 48 hours (at day 10), the waxed paper was removed. The skin reaction was observed upon the removal. On day 22, the test substance (10%) was patched onto the anterior side of the body for induction, and the induction patching was removed after 24 hours. On the next day (at day 24) and the next day (at day 25), the skin reaction was evaluated according to the description of the document as mentioned above. Erythema and edema were scored, and the case with the total score of 2 or higher was evaluated to be positive with the maximum of the score being 7.
# S. aureus, 209P = assay: antibacterial activity (MIC), standard method of Japanese Society of Chemotherapy
# [6] = test system: S. pneumoniae, J24 (penicillin-intermediate resistant bacteria); assay: as above
# S. epidermidis, 56500 = assay: as above
# E. coli NIHJ = assay: as above
# P. aeruginosa, 32104 = assay: as above
# [7] = rat, in vivo, po, 5 mg/kg
# Method: as §1, §2, §3, §4, §5
# [8] = test system: Mycobacterium tuberculosis (sensitive bacteria); assay: anti-Mycobacterium tuberculosis (sensitive bacteria) activity, MIC; assay type: cell-based
# P. aeruginosa, 32121 = assay: antibacterial activity (MIC), standard method of Japanese Society of Chemotherapy
# [9] = test system: S. aureus, 87037 (LVFX-resistant MRSA); assay: as above; details: S. aureus, 87037 (LVFX-resistant MRSA)
# E. faecalis, ATCC 19433 = assay: as above
# S. marscecens, 10100 = assay: as above
# in vivo [10] = details: female, cynomolgus monkey, po, 5 mg/kg
# [11] = test system: bone marrow cells (polychromatic erythrocytes); assay: mouse bone marrow micronucleus test; assay type: in vivo, Slc:ddY male mice
# Method: The control was 0.1 mol/l NaOH/physiological saline solvent, and the positive control was cyclophosphamide (cyclophoshamide, CP) dissolved and diluted in physiological saline. All samples were sterilized by filtering through Milex GS filter (0.22 μm). Each solution was intravenously administered at a dose of 10 mL/kg in single dose at an administration rate of 0.2 mL/min.
# Bone marrow cells were collected from thigh bone at 24 hours after the administration, and smear preparation was prepared. After staining with acridine orange, 1000 polychromatic erythrocytes per animal were observed under fluorescence microscope to count frequency of micrronucleated polychromatic erythrocyte and ratio of the orthochromatic erythrocytes to the polychromatic erythrocyte in 1000 erythrocytes.
# [12] = assay type: in vivo; details: 30 minutes observation
# Method: The test substance was intracisternally administered to male Slc:ddy mice (6 animals per group), and the convulsion and death were monitored for each cage until 30 minutes after the administration. The test substance was dissolved in 5 μl of 1% aqueous solution of lactic acid, and the dose was 5, 15, or 50 μg per animal.
# hERG K+ channel [13] = target: T1, hERG K+ channel
# CYP3A4 = CYP3A4 (Homo sapiens, UniProt P08684); details: known from the document cited; cited from earlier work
# CYP3A4, sequence (P08684 whole entry): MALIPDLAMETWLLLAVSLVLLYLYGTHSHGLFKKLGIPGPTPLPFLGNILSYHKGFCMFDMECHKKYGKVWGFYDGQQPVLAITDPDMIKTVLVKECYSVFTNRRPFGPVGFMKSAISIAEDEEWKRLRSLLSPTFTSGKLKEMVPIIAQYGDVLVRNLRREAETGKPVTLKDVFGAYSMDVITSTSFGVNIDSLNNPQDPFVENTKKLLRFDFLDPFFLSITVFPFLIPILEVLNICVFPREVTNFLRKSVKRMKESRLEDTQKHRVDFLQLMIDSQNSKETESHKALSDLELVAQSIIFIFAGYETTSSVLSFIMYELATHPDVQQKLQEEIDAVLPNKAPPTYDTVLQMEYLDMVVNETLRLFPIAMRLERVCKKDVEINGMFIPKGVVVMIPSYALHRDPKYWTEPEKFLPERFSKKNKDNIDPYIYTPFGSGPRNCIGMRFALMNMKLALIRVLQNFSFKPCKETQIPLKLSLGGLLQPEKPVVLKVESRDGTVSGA
# [14] = in vivo; cited from earlier work
# [15] = Proteus vulgaris, 08601, P. vulgaris
# [16] = Staphylococcus epidermidis, 56500, S. epidermidis
# [17] = Enterococcus faecalis, ATCC19433, E. faecalis
# 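Throughout, for Serum AUC0-8 h: fasted 7-week-old rats, three per group, tissue sampled up to 8 h post-dose and urine collected over 0–24 h, with conjugates measured after alkaline hydrolysis, concentrations by LC-MS/MS.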
# 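Throughout, for Tissue AUC0-8 h, Kidney: fasted 7-week-old rats, three per group, tissue sampled up to 8 h post-dose and urine collected over 0–24 h, with conjugates measured after alkaline hydrolysis, concentrations by LC-MS/MS.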
# 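Throughout, for Tissue AUC0-8 h, Liver: fasted 7-week-old rats, three per group, tissue sampled up to 8 h post-dose and urine collected over 0–24 h, with conjugates measured after alkaline hydrolysis, concentrations by LC-MS/MS.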
# 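Throughout, for Tissue AUC0-8 h, Lung: fasted 7-week-old rats, three per group, tissue sampled up to 8 h post-dose and urine collected over 0–24 h, with conjugates measured after alkaline hydrolysis, concentrations by LC-MS/MS.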
structure (smiles),measurement,setting,value
COc1c(N2C[C@@H](N)C3(CC3)C2)c(F)cc2c(=O)c(C(=O)O)cn([C@@H]3C[C@@H]3F)c12 [Comparative compound 1],Cmax,in vivo [1],820 ng/mL
same,MIC,[2]; strain 1 (QR-3),1 µg/mL
same,MIC,[2]; strain 2 (QR-6),128 µg/mL
same,MIC,[2]; strain 3 (QR-1),2 µg/mL
same,MIC,[2]; strain 4 (QR-9),32 µg/mL
same,MIC,[2]; strain MDR 1,0.5 µg/mL
same,MIC,[2]; strain MDR 3,0.5 µg/mL
same,MIC,[2]; strain MDR 4,0.5 µg/mL
same,MIC,[2]; strain MDR 5,1 µg/mL
same,MIC,[2]; strain MDR 7,0.5 µg/mL
same,MIC,[2]; strain MDR 9,0.5 µg/mL
same,MIC,[2]; strain MDR 12,0.5 µg/mL
same,MIC,[2]; strain S 1,2 µg/mL
same,inhibition at 30 µM,hERG K+ channel [3],6.7 ± 8.3%
same,inhibition at 100 µM,hERG K+ channel [3],13.5 ± 3.1%
same,inhibition at 300 µM,hERG K+ channel [3],24.8 ± 16.5%
same,"Recovery (%) in urine in relation to the amount administered, Recovery (%) including conjugate",[4],32.9%
same,MIC,"P. vulgaris, 08601; [15]",0.012 µg/mL
same,Evaluation in GPMT,[5],Positive
same,Average score in GPMT,[5],6.8
same,MIC,"S. aureus, 209P; Staphylococcus aureus",0.006 µg/mL
same,MIC,[6]; Streptococcus pneumoniae,0.025 µg/mL
same,MIC,"S. epidermidis, 56500; [16]",0.05 µg/mL
same,MIC,E. coli NIHJ; Escherichia coli,≤ 0.003 µg/mL
same,MIC,"P. aeruginosa, 32104; Pseudomonas aeruginosa",0.1 µg/mL
same,"Recovery (%) in urine in relation to the amount administered, Recovery (%) including conjugate","[7]; male, Crj:CD IGS",23.1%
same,Serum AUC0-8 h,"[7]; male, Crj:CD IGS",1590 ng·h/mL
same,"Tissue AUC0-8 h, Kidney","[7]; male, Crj:CD IGS",19300 ng·h/mL
same,"Tissue AUC0-8 h, Liver","[7]; male, Crj:CD IGS",15000 ng·h/mL
same,"Tissue AUC0-8 h, Lung","[7]; male, Crj:CD IGS",6770 ng·h/mL
same,"Tissue Cmax, Kidney","[7]; male, Crj:CD IGS",8.63 µg/g
same,"Tissue Cmax, Liver","[7]; male, Crj:CD IGS",9.3 µg/g
same,"Tissue Cmax, Lung","[7]; male, Crj:CD IGS",2.59 µg/g
same,MIC,"[8]; H37RV, strain H37Rv",0.06 µg/mL
same,MIC,[8]; strain Kurono,0.06 µg/mL
same,MIC,[8]; strain Ravenel,0.06 µg/mL
same,MIC,[8]; strain TB-s 2,0.125 µg/mL
same,MIC,[8]; strain TB-s 3,0.125 µg/mL
same,MIC,[8]; strain TB-s 4,0.125 µg/mL
same,MIC,[8]; strain TB-s 5,0.06 µg/mL
same,MIC,[8]; strain TB-s 6,0.125 µg/mL
same,MIC,[8]; strain TB-s 7,0.25 µg/mL
same,MIC,[8]; strain TB-s 8,0.06 µg/mL
same,MIC,[8]; strain TB-s 9,0.125 µg/mL
same,MIC,[8]; strain TB-s 10,0.06 µg/mL
same,MIC,[8]; strain TB-s 11,0.125 µg/mL
same,MIC,[8]; strain TB-s 12,0.25 µg/mL
same,MIC,[8]; strain TB-s 13,0.125 µg/mL
same,MIC,[8]; strain TB-s 14,0.125 µg/mL
same,MIC,[8]; strain TB-s 15,0.125 µg/mL
same,MIC,[8]; strain TB-s 16,0.125 µg/mL
same,MIC,[8]; strain TB-s 17,0.125 µg/mL
same,MIC,[8]; strain TB-s 18,0.125 µg/mL
same,MIC,[8]; strain TB-s 19,0.125 µg/mL
same,MIC,[8]; strain TB-s 20,0.25 µg/mL
same,MIC,[8]; strain TB-s 21,0.125 µg/mL
same,MIC,[8]; strain TB-s 22,0.06 µg/mL
same,MIC,"P. aeruginosa, 32121; Pseudomonas aeruginosa",0.05 µg/mL
same,MIC,"[9]; Staphylococcus aureus, MRSA",0.39 µg/mL
same,MIC,"E. faecalis, ATCC 19433; [17]",0.1 µg/mL
same,MIC,"S. marscecens, 10100",0.05 µg/mL
same,AUC(0-t),in vivo [10],5110 ng·h/mL
same,Cmax,in vivo [10],840 ng/mL
same,half-life,in vivo [10],5 h
"COc1c(N2C[C@@H](C)[C@@](C)(N)C2)c(F)cc2c(=O)c(C(=O)O)cn([C@@H]3C[C@@H]3F)c12 (relative stereo) [Example 3, 7-[(3R*,4R*)-3-Amino-3,4-dimethylpyrrolidin-1-yl]-6-fluoro-1-[(1R,2S)-2-fluorocyclopropyl]-8-methoxy-1,4-dihydro-4-oxoguinoline-3-carboxylic acid]","micronucleus induction rate versus control, evaluation result",[11]; in vivo,negative
same,MIC,"P. vulgaris, 08601; P. vulgaris",0.05 µg/mL
same,MIC,"S. aureus, 209P",0.025 µg/mL
same,MIC,[6],0.1 µg/mL
same,MIC,"S. epidermidis, 56500; S. epidermidis",0.1 µg/mL
same,MIC,E. coli NIHJ; E. coli NIHJ,0.012 µg/mL
same,MIC,"P. aeruginosa, 32104; P. aeruginosa",0.39 µg/mL
same,convulsant activity (animals affected / 6 animals per group),[12]; 5 μg/mouse intracisternal,0/6
same,convulsant activity (animals affected / 6 animals per group),[12]; 15 μg/mouse intracisternal,2/6
same,convulsant activity (animals affected / 6 animals per group),[12]; 50 μg/mouse intracisternal,6/6
same,"hERG-K^+ channel blocking effect, Inhibition (%)",hERG K+ channel [13]; 30 µM,5.3 ± 4.1%
same,"hERG-K^+ channel blocking effect, Inhibition (%)",hERG K+ channel [13]; 100 µM,12.0 ± 4.0%
same,"hERG-K^+ channel blocking effect, Inhibition (%)",hERG K+ channel [13]; 300 µM,22.3 ± 0.7%
same,"Recovery (%) in urine in relation to the amount administered, 0-24 h",[7],24.5%
same,"Recovery (%) in urine in relation to the amount administered, Recovery (%) including conjugate",[7],24.7%
same,Serum AUC0-8 h,[7],1850 ng·h/mL
same,Serum Cmax (0.25 h),[7],1030 ng/mL
same,"Tissue AUC0-8 h, Kidney",[7],17100 ng·h/mL
same,"Tissue AUC0-8 h, Liver",[7],15400 ng·h/mL
same,"Tissue AUC0-8 h, Lung",[7],7380 ng·h/mL
same,"Tissue Cmax, Kidney",[7],8.83 µg/g
same,"Tissue Cmax, Liver",[7],9.02 µg/g
same,"Tissue Cmax, Lung",[7],3.47 µg/g
same,MIC,"P. aeruginosa, 32121; P. aeruginosa",0.2 µg/mL
same,MIC,[9],0.78 µg/mL
same,MIC,"E. faecalis, ATCC 19433; E. faecalis",0.2 µg/mL
same,MIC,"S. marscecens, 10100",0.2 µg/mL
CC[C@H]1OC(=O)[C@H](C)[C@@H](O[C@H]2C[C@@](C)(OC)[C@@H](O)[C@H](C)O2)[C@H](C)[C@@H](O[C@@H]2O[C@H](C)C[C@H](N(C)C)[C@H]2O)[C@](C)(OC)C[C@@H](C)C(=O)[C@H](C)[C@@H](O)[C@]1(C)O [clarithromycin],MBI action for CYP3A4,CYP3A4,exhibit MBI action for CYP3A4
"CO/N=C1\CN(c2nc3c(cc2F)c(=O)c(C(=O)O)cn3C2CC2)CC1CN (stereo not drawn) [Gemifloxacin, gemifloxacin]",Average score in GPMT,[5],6.8
same,side effect of rash in phase 3 clinical trial,[14],frequently develops the side effect of rash
"COc1c(N2C[C@H](C)[C@@](C)(N)C2)c(F)cc2c(=O)c(C(=O)O)cn([C@@H]3C[C@@H]3F)c12 (single isomer, unassigned) [Example 2, 7-[(3R*,4S*)-3-Amino-3,4-dimethylpyrrolidin-1-yl]-6-fluoro-1-[(1R,2S)-2-fluorocyclopropyl]-8-methoxy-1,4-dihydro-4-oxoquinoline-3-carboxylic acid]",AUC(0-t),in vivo [1],1310 ng·h/mL
same,Cmax,in vivo [1],670 ng/mL
same,inhibition at 30 µM,hERG K+ channel [3],3.8 ± 2.1%
same,inhibition at 100 µM,hERG K+ channel [3],8.5 ± 1.2%
same,inhibition at 300 µM,hERG K+ channel [3],18.2 ± 4.2%
same,"micronucleus induction rate versus control, evaluation result","[11]; single i.v. dose, 24 h, Example 2: 50, 100 mg/kg, Example 3: 100, 150 mg/kg, Example 9: 50, 100, 150 mg/kg",negative
same,MIC,"P. vulgaris, 08601; [15]",0.025 µg/mL
same,MIC,"S. aureus, 209P; Staphylococcus aureus",0.025 µg/mL
same,MIC,[6]; Streptococcus pneumoniae,0.1 µg/mL
same,MIC,"S. epidermidis, 56500; [16]",0.05 µg/mL
same,MIC,E. coli NIHJ; Escherichia coli,0.012 µg/mL
same,MIC,"P. aeruginosa, 32104; Pseudomonas aeruginosa",0.2 µg/mL
same,"Recovery (%) in urine in relation to the amount administered, Recovery (%) including conjugate","[7]; male, Crj:CD IGS",26.6%
same,"Tissue AUC0-8 h, Kidney","[7]; male, Crj:CD IGS",14700 ng·h/mL
same,"Tissue AUC0-8 h, Liver","[7]; male, Crj:CD IGS",17400 ng·h/mL
same,"Tissue AUC0-8 h, Lung","[7]; male, Crj:CD IGS",8070 ng·h/mL
same,"Tissue Cmax, Kidney","[7]; male, Crj:CD IGS",7.78 µg/g
same,"Tissue Cmax, Liver","[7]; male, Crj:CD IGS",10.2 µg/g
same,"Tissue Cmax, Lung","[7]; male, Crj:CD IGS",2.46 µg/g
same,MIC,"P. aeruginosa, 32121; Pseudomonas aeruginosa",0.1 µg/mL
same,MIC,"[9]; Staphylococcus aureus, MRSA",0.78 µg/mL
same,MIC,"E. faecalis, ATCC 19433; [17]",0.2 µg/mL
same,MIC,"S. marscecens, 10100",0.1 µg/mL
